Results published in ChEMBL document CHEMBL1201862, “PubChem BioAssay data set” (2004).
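Compound exposure: 48 hours, 5 concentrations, 96-well plates. Here, GI50 denotes the concentration required for 50% inhibition of growth.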 Calls of active or inactive are those of the source. No stated cut-off is given here; in the data, active = GI50 up to about 1.1 µM and inactive = higher.

How the values were obtained:
Test in all cases: inhibition of tumour cell growth, NCI panel, 48 h
DU-145 = system: DU-145
UO-31 = system: UO-31
UACC-62 = system: UACC-62
MDA-MB-231 = system: MDA-MB-231
SK-OV-3 = system: SK-OV-3
HCC 2998 = system: HCC 2998
OVCAR-5 = system: OVCAR-5
A549 = system: A549
CAKI-1 = system: CAKI-1
HT-29 = system: HT-29
PC-3 = system: PC-3
RPMI-8226 = system: RPMI-8226
786-0 = system: 786-0
SW-620 = system: SW-620
SK-MEL-28 = system: SK-MEL-28
NCI-H522 = system: NCI-H522
MOLT-4 = system: MOLT-4
K562 = system: K562
BT-549 = system: BT-549
UACC-257 = system: UACC-257

Row | SMILES | GI50 (DU-145) | GI50 (UO-31) | GI50 (UACC-62) | GI50 (MDA-MB-231) | GI50 (SK-OV-3) | GI50 (HCC 2998) | GI50 (OVCAR-5) | GI50 (A549) | GI50 (CAKI-1) | GI50 (HT-29) | GI50 (PC-3) | GI50 (RPMI-8226) | GI50 (786-0) | GI50 (SW-620) | GI50 (SK-MEL-28) | GI50 (NCI-H522) | GI50 (MOLT-4) | GI50 (K562) | GI50 (BT-549) | GI50 (UACC-257)
1 | O=C(CN1CCCC1)Nc1ccc2sc3ccccc3c(=O)c2n1 | 25.9 µM (inactive) | 14.2 µM (inactive) | 19.9 µM (inactive) | 26.4 µM (inactive) | 20.7 µM (inactive) | 13.9 µM (inactive) | 24.4 µM (inactive) | 16.6 µM (inactive) | 18 µM (inactive) | 34 µM (inactive) | 14.7 µM (inactive) | 21.3 µM (inactive) | 14.9 µM (inactive) | 4.97 µM (inactive) | 19.3 µM (inactive) | 11.2 µM (inactive) | 1.91 µM (inactive) | 6.82 µM (inactive) | 25.3 µM (inactive) | > 10 µM (inactive)
2 | CC1(C)CCCC2CC2CCC(C)(C)C1=O (stereo not given) | > 100 µM (inactive) | > 100 µM (inactive) | > 100 µM (inactive) | 82.4 µM (inactive) | > 100 µM (inactive) | 0.242 µM (active) | 46.5 µM (inactive) | 42.4 µM (inactive) | > 100 µM (inactive) | 44.7 µM (inactive) | 51.1 µM (inactive) | 25.2 µM (inactive) | 28.8 µM (inactive) | > 100 µM (inactive) | > 100 µM (inactive) | 37.5 µM (inactive) | 29.2 µM (inactive) | 17.8 µM (inactive) | > 100 µM (inactive) | 39.5 µM (inactive)
3 | Clc1cc2ncn(C3CCCO3)c2cc1Cl (stereo not given) | > 100 µM (inactive) | 17.7 µM (inactive) | 40.1 µM (inactive) | > 100 µM (inactive) | > 100 µM (inactive) | 62.8 µM (inactive) | > 100 µM (inactive) | 75.9 µM (inactive) | 58.1 µM (inactive) | 68.4 µM (inactive) | 48.2 µM (inactive) | 88.9 µM (inactive) | > 100 µM (inactive) | 98.2 µM (inactive) | > 100 µM (inactive) | 24.5 µM (inactive) | 54 µM (inactive) | 96.2 µM (inactive) | 19.5 µM (inactive) | > 100 µM (inactive)
4 | CC(Oc1ccc(Cl)cc1Cl)C(=O)NN1C(=O)CSC1c1ccccc1 (stereo not given) | 91 µM (inactive) | > 100 µM (inactive) | 50.2 µM (inactive) | 37.8 µM (inactive) | 55.8 µM (inactive) | > 100 µM (inactive) | > 100 µM (inactive) | 39.3 µM (inactive) | 20.4 µM (inactive) | > 100 µM (inactive) | 32.4 µM (inactive) | 49.2 µM (inactive) | 43.5 µM (inactive) | > 100 µM (inactive) | 50.5 µM (inactive) | 56.2 µM (inactive) | > 100 µM (inactive) | 63.4 µM (inactive) | 24 µM (inactive) | 53.2 µM (inactive)
5 | NC(=O)Nc1n[nH]c(-c2ccccc2)n1 | > 100 µM (inactive) | > 100 µM (inactive) | > 100 µM (inactive) | > 100 µM (inactive) | 1.79 µM (inactive) | > 100 µM (inactive) | > 100 µM (inactive) | > 100 µM (inactive) | > 100 µM (inactive) | > 100 µM (inactive) | > 100 µM (inactive) | > 100 µM (inactive) | > 100 µM (inactive) | > 100 µM (inactive) | > 100 µM (inactive) | > 100 µM (inactive) | > 100 µM (inactive) | > 100 µM (inactive) | > 100 µM (inactive) | > 100 µM (inactive)
6 | CC(=O)Nn1c(=S)[nH]c2ccccc21 | > 100 µM (inactive) | > 100 µM (inactive) | > 100 µM (inactive) | > 100 µM (inactive) | > 100 µM (inactive) | > 100 µM (inactive) | > 100 µM (inactive) | > 100 µM (inactive) | > 100 µM (inactive) | > 100 µM (inactive) | > 100 µM (inactive) | > 100 µM (inactive) | > 100 µM (inactive) | > 100 µM (inactive) | > 100 µM (inactive) | > 100 µM (inactive) | > 100 µM (inactive) | > 100 µM (inactive) | > 100 µM (inactive) | > 100 µM (inactive)
7 | COC(=O)[C@H](Cc1ccccc1)NP(=O)(OCCC#N)OCC1OC(n2cc(C)c(=O)[nH]c2=O)CC1N=[N+]=[N-] (stereo not given in full) | > 100 µM (inactive) | > 100 µM (inactive) | > 100 µM (inactive) | > 100 µM (inactive) | > 100 µM (inactive) | > 100 µM (inactive) | > 100 µM (inactive) | > 100 µM (inactive) | > 100 µM (inactive) | > 100 µM (inactive) | > 100 µM (inactive) | > 100 µM (inactive) | > 100 µM (inactive) | > 100 µM (inactive) |  | 35 µM (inactive) | > 100 µM (inactive) | > 100 µM (inactive) | > 100 µM (inactive) | > 100 µM (inactive)
8 | Nc1c(F)c(F)c2c(c1F)N(CCCCCl)c1ccccc1S2 | > 100 µM (inactive) | > 100 µM (inactive) | > 100 µM (inactive) | > 100 µM (inactive) | > 100 µM (inactive) | > 100 µM (inactive) | > 100 µM (inactive) | > 100 µM (inactive) | > 100 µM (inactive) | > 100 µM (inactive) | > 100 µM (inactive) | > 100 µM (inactive) | > 100 µM (inactive) | > 100 µM (inactive) | > 100 µM (inactive) | > 100 µM (inactive) | > 100 µM (inactive) | > 100 µM (inactive) | > 100 µM (inactive) | > 100 µM (inactive)
9 | CC(=O)Nc1ccc(CNc2cc(=O)[nH]c(=O)[nH]2)cc1 | > 100 µM (inactive) | > 100 µM (inactive) | > 100 µM (inactive) | > 100 µM (inactive) | > 100 µM (inactive) | > 100 µM (inactive) | > 100 µM (inactive) | > 100 µM (inactive) | > 100 µM (inactive) | > 100 µM (inactive) | > 100 µM (inactive) | > 100 µM (inactive) | > 100 µM (inactive) | > 100 µM (inactive) | > 100 µM (inactive) | > 100 µM (inactive) | > 100 µM (inactive) | > 100 µM (inactive) | > 100 µM (inactive) | > 100 µM (inactive)
10 | CC(Oc1ccccc1)C(=O)NN (stereo not given) | > 100 µM (inactive) | > 100 µM (inactive) | > 100 µM (inactive) | 66.8 µM (inactive) | > 100 µM (inactive) | > 100 µM (inactive) | > 100 µM (inactive) | > 100 µM (inactive) | > 100 µM (inactive) | > 100 µM (inactive) | > 100 µM (inactive) | > 100 µM (inactive) | > 100 µM (inactive) | > 100 µM (inactive) | > 100 µM (inactive) | 79.3 µM (inactive) | > 100 µM (inactive) | > 100 µM (inactive) | > 100 µM (inactive) | > 100 µM (inactive)
11 | Cc1cn([C@H]2C=C[C@@H](CO)O2)c(=O)[nH]c1=O [STAVUDINE] | > 1000 µM (inactive) | 490 µM (inactive) | 902 µM (inactive) | > 1000 µM (inactive) | > 1000 µM (inactive) | > 1000 µM (inactive) | > 1000 µM (inactive) | > 1000 µM (inactive) | 307 µM (inactive) | > 1000 µM (inactive) | > 1000 µM (inactive) | 466 µM (inactive) | 652 µM (inactive) | 418 µM (inactive) |  | 350 µM (inactive) | > 1000 µM (inactive) | > 1000 µM (inactive) | 327 µM (inactive) | > 1000 µM (inactive)
12 | N#Cc1c(N2CCOCC2)[nH]c(=O)c(C(c2c(Cl)cccc2Cl)c2c(O)c(C#N)c(N3CCOCC3)[nH]c2=O)c1O | 23.9 µM (inactive) | 18.2 µM (inactive) | 16.6 µM (inactive) | 16.6 µM (inactive) |  | 12.5 µM (inactive) | 14 µM (inactive) | 77.6 µM (inactive) | 18.1 µM (inactive) | 15.4 µM (inactive) | 17.8 µM (inactive) | 21.4 µM (inactive) | 32 µM (inactive) | 17.7 µM (inactive) | 17.9 µM (inactive) | 13.4 µM (inactive) | 16.1 µM (inactive) | 11.2 µM (inactive) | 17.6 µM (inactive) | 17.8 µM (inactive)
13 | O=c1c(-c2ccccc2)c(SCCN2CCCC2)n(-c2ccccc2)c(=S)n1-c1ccccc1 | > 100 µM (inactive) |  | > 100 µM (inactive) | > 100 µM (inactive) | > 100 µM (inactive) | > 100 µM (inactive) | > 100 µM (inactive) | > 100 µM (inactive) | > 100 µM (inactive) | > 100 µM (inactive) | > 100 µM (inactive) | > 100 µM (inactive) | > 100 µM (inactive) | > 100 µM (inactive) | > 100 µM (inactive) | > 100 µM (inactive) | > 100 µM (inactive) | > 100 µM (inactive) | > 100 µM (inactive) | > 100 µM (inactive)
14 | CN(C(=O)CC(=O)CP(=O)(c1ccccc1)c1ccccc1)c1ccccc1 | > 100 µM (inactive) | > 100 µM (inactive) | > 100 µM (inactive) | > 100 µM (inactive) | > 100 µM (inactive) | > 100 µM (inactive) |  | > 100 µM (inactive) | > 100 µM (inactive) | > 100 µM (inactive) | > 100 µM (inactive) | > 100 µM (inactive) | > 100 µM (inactive) | > 100 µM (inactive) | > 100 µM (inactive) | > 100 µM (inactive) | > 100 µM (inactive) | > 100 µM (inactive) | > 100 µM (inactive) | > 100 µM (inactive)
